In patent US8338565B2, “Macrocyclic compounds for inhibition of tumor necrosis factor alpha” (Ensemble Therapeutics Corporation, priority 2008, dated 2012) one finds IC50 data, which are given here for 28 molecules.

Each structure is given as a SMILES string.

T1 sequence (P01375 77-233 limits assumed, species assumed): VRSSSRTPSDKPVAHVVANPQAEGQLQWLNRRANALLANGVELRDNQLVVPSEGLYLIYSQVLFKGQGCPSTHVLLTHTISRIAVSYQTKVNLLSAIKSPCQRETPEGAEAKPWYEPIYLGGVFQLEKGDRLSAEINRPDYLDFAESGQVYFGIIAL

The first assay addresses T1, TNFα / TNFα receptor (TNFα R1/Fc) (Homo sapiens, UniProt P01375).
T1 construct: purchased R&D Systems
Description: Inhibition of binding of TNFα to the TNFα receptor (plate ELISA competition). Particulars: Activity (IC50, inhibition of TNFα binding to TNFα R1/Fc), Table 2. The procedure, abridged: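 Compound dilutions were preincubated 30 min at RT with 8.33 nM TNFα R1/Fc in PBST with 2% DMSO, then added to wells coated with 15 nM TNFα for 30 min. Bound receptor was detected with HRP anti-human Fc and TMB, read as A450.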
On the technique in general: In an ELISA, binding on a coated surface is turned into a signal by an enzyme label.
The molecule `C[C@@H](C(=O)O)N(C)C(=O)[C@@H]1Cc2ccc(cc2)OCC(=O)N[C@@H](Cc2cccs2)C(=O)N[C@H](Cc2ccc(-c3ccccc3)cc2)C(=O)N[C@@H](CCc2ccccc2)C(=O)N1` [Compound 575] returned an IC50 of less than 10 µM.
As to `C[C@H](C(=O)O)N(C)C(=O)[C@@H]1Cc2ccc(cc2)OCC(=O)N[C@@H](Cc2cccs2)C(=O)N[C@H](Cc2ccc(-c3ccccc3)cc2)C(=O)N[C@@H](CCc2ccccc2)C(=O)N1` [Compound 576], the IC50 is less than 10 µM.
The same measure, in the same setting: then `O=C1COc2ccc(cc2)C[C@@H](C(=O)N[C@H](Cc2ccccc2)C(=O)O)NC(=O)[C@H](Cc2cccs2)NC(=O)[C@@H](Cc2ccc(-c3ccccc3)cc2)NC(=O)[C@H](Cc2cccs2)N1` [Compound 588], with less than 10 µM; and `O=C1COc2ccc(cc2)C[C@@H](C(=O)N[C@@H](Cc2ccccc2)c2nnn[nH]2)NC(=O)[C@H](Cc2ccccc2)NC(=O)[C@@H](Cc2ccc(-c3ccccc3)cc2)NC(=O)[C@H](Cc2cccs2)N1` [Compound 590], with less than 10 µM.
As to `O=C1COc2ccc(cc2)C[C@@H](C(=O)NCc2nnn[nH]2)NC(=O)[C@H](Cc2ccccc2)NC(=O)[C@@H](Cc2ccc(-c3ccccc3)cc2)NC(=O)[C@H](Cc2cccs2)N1` [Compound 591], the IC50 was less than 10 µM.

The same assay, now with this note: Table 2; read-out: Activity (IC50, inhibition of TNFα binding to TNFα R1/Fc).
For `O=C(O)CCNC(=O)[C@@H]1Cc2ccc(cc2)OCC(=O)N[C@@H](Cc2ccc(-c3ccccc3)cc2)C(=O)N[C@H](Cc2ccc(-c3ccccc3)cc2)C(=O)N[C@@H](CCc2ccccc2)C(=O)N1` [Compound 569], the IC50 was less than 10 µM.
With `O=C(O)CNC(=O)[C@@H]1Cc2ccc(cc2)OCC(=O)N[C@@H](Cc2ccc(-c3ccccc3)cc2)C(=O)N[C@H](Cc2ccc(-c3ccccc3)cc2)C(=O)N[C@@H](CCc2ccccc2)C(=O)N1` [Compound 570], the IC50 lay within 10 to 30 µM.
`O=C1COc2ccc(cc2)C[C@@H](C(=O)N[C@H](CO)C(=O)O)NC(=O)[C@H](CCc2ccccc2)NC(=O)[C@@H](Cc2ccc(-c3ccccc3)cc2)NC(=O)[C@H](Cc2ccc(-c3ccccc3)cc2)N1` [Compound 571]: the IC50 is less than 10 µM.
In the case of `C[C@H](NC(=O)[C@@H]1Cc2ccc(cc2)OCC(=O)N[C@@H](Cc2ccc(-c3ccccc3)cc2)C(=O)N[C@H](Cc2ccc(-c3ccccc3)cc2)C(=O)N[C@@H](CCc2ccccc2)C(=O)N1)C(=O)O` [Compound 572], the IC50 is less than 10 µM.
In the case of `O=C1COc2ccc(cc2)C[C@@H](C(=O)N[C@H](Cc2ccccc2)C(=O)O)NC(=O)[C@H](CCc2ccccc2)NC(=O)[C@@H](Cc2ccc(-c3ccccc3)cc2)NC(=O)[C@H](Cc2ccc(-c3ccccc3)cc2)N1` [Compound 573], the IC50 was less than 10 µM.
Regarding `O=C1COc2ccc(cc2)C[C@@H](C(=O)N[C@@H](Cc2ccccc2)C(=O)O)NC(=O)[C@H](CCc2ccccc2)NC(=O)[C@@H](Cc2ccc(-c3ccccc3)cc2)NC(=O)[C@H](Cc2ccc(-c3ccccc3)cc2)N1` [Compound 574], the IC50 was greater than 100 µM.
On to `C[C@@H](NC(=O)[C@@H]1Cc2ccc(cc2)OCC(=O)N[C@@H](Cc2ccc(-c3ccccc3)cc2)C(=O)N[C@H](Cc2ccc(-c3ccccc3)cc2)C(=O)N[C@@H](CCc2ccccc2)C(=O)N1)C(=O)O` [Compound 577], for which the IC50 was less than 10 µM.
Consider `O=C1COc2ccc(cc2)C[C@@H](C(=O)NCCO)NC(=O)[C@H](CCc2ccccc2)NC(=O)[C@@H](Cc2ccc(-c3ccccc3)cc2)NC(=O)[C@H](Cc2ccncc2)N1` [Compound 578], for which the IC50 is greater than 100 µM.
For `O=C(O)CCNC(=O)[C@@H]1Cc2ccc(cc2)OCC(=O)N[C@@H](Cc2ccc(-c3ccncc3)cc2)C(=O)N[C@H](Cc2ccc(-c3ccccc3)cc2)C(=O)N[C@@H](CCc2ccccc2)C(=O)N1` [Compound 579], the IC50 is less than 10 µM.
On to `O=C(O)CCCNC(=O)[C@@H]1Cc2ccc(cc2)OCC(=O)N[C@@H](Cc2ccc(-c3ccncc3)cc2)C(=O)N[C@H](Cc2ccc(-c3ccccc3)cc2)C(=O)N[C@@H](CCc2ccccc2)C(=O)N1` [Compound 580], for which the IC50 is less than 10 µM.
As to `O=C1COc2ccc(cc2)C[C@@H](C(=O)N[C@@H](Cc2ccccc2)C(=O)O)NC(=O)[C@H](CCc2ccccc2)NC(=O)[C@@H](Cc2ccc(-c3ccccc3)cc2)NC(=O)[C@H](Cc2ccc(-c3ccncc3)cc2)N1` [Compound 581], the IC50 was less than 10 µM.
As to `O=C1COc2ccc(cc2)C[C@@H](C(=O)N[C@H](Cc2ccccc2)C(=O)O)NC(=O)[C@H](CCc2ccccc2)NC(=O)[C@@H](Cc2ccc(-c3ccccc3)cc2)NC(=O)[C@H](Cc2ccc(-c3ccncc3)cc2)N1` [Compound 582], the IC50 is less than 10 µM.
Same read-out and setting: the same measure for `O=C1COc2ccc(cc2)C[C@@H](C(=O)N[C@@H](CO)C(=O)O)NC(=O)[C@H](CCc2ccccc2)NC(=O)[C@@H](Cc2ccc(-c3ccccc3)cc2)NC(=O)[C@H](Cc2ccc(-c3ccncc3)cc2)N1` [Compound 583]: less than 10 µM; for `O=C1COc2ccc(cc2)C[C@@H](C(=O)N[C@H](CO)C(=O)O)NC(=O)[C@H](CCc2ccccc2)NC(=O)[C@@H](Cc2ccc(-c3ccccc3)cc2)NC(=O)[C@H](Cc2ccc(-c3ccncc3)cc2)N1` [Compound 584]: less than 10 µM; for `O=C1COc2ccc(cc2)C[C@@H](C(=O)N[C@@H](Cc2ccc(O)cc2)C(=O)O)NC(=O)[C@H](CCc2ccccc2)NC(=O)[C@@H](Cc2ccc(-c3ccccc3)cc2)NC(=O)[C@H](Cc2ccc(-c3ccncc3)cc2)N1` [Compound 585]: less than 10 µM.
Turning to `O=C1COc2ccc(cc2)C[C@@H](C(=O)N[C@H](Cc2ccc(O)cc2)C(=O)O)NC(=O)[C@H](CCc2ccccc2)NC(=O)[C@@H](Cc2ccc(-c3ccccc3)cc2)NC(=O)[C@H](Cc2ccc(-c3ccncc3)cc2)N1` [Compound 586], the IC50 was less than 10 µM.
On to `O=C1COc2ccc(cc2)C[C@@H](C(=O)N[C@H](Cc2ccccc2)C(=O)O)NC(=O)[C@H](Cc2ccccc2F)NC(=O)[C@@H](Cc2ccc(-c3ccccc3)cc2)NC(=O)[C@H](Cc2cccs2)N1` [Compound 587], for which the IC50 was less than 10 µM.
With `O=C1COc2ccc(cc2)C[C@@H](C(=O)N[C@@H](Cc2ccccc2)c2nnn[nH]2)NC(=O)[C@H](CCc2ccccc2)NC(=O)[C@@H](Cc2ccc(-c3ccccc3)cc2)NC(=O)[C@H](Cc2ccncc2)N1` [Compound 592], the IC50 is less than 10 µM.
On the same count and under the same terms, the same measure for `O=C(NCS(=O)(=O)O)[C@@H]1Cc2ccc(cc2)NC(=O)[C@H](O)[C@@H](O)C(=O)N[C@H](Cc2cccs2)C(=O)N[C@@H](Cc2ccc(-c3ccccc3)cc2)C(=O)N[C@H](CCc2ccccc2)C(=O)N1` [Compound 593]: less than 10 µM.
Take `O=C1COc2ccc(cc2)C[C@@H](C(=O)NCCCS(=O)(=O)O)NC(=O)[C@H](CCc2ccccc2)NC(=O)[C@@H](Cc2ccc(-c3ccccc3)cc2)NC(=O)[C@H](Cc2ccncc2)N1` [Compound 599]: the IC50 is less than 10 µM.
`CS(=O)(=O)NC(=O)[C@@H]1Cc2ccc(cc2)OCC(=O)N[C@@H](Cc2ccncc2)C(=O)N[C@H](Cc2ccc(-c3ccccc3)cc2)C(=O)N[C@@H](CCc2ccccc2)C(=O)N1` [Compound 600]: the IC50 fell in the range of 10 to 30 µM.
In the case of `O=C1COc2ccc(cc2)C[C@@H](C(=O)NCCCS(=O)(=O)O)NC(=O)[C@H](CCc2ccccc2)NC(=O)[C@@H](Cc2ccc(-c3ccccc3)cc2)NC(=O)[C@H](Cc2cccs2)N1` [Compound 603], the IC50 was greater than 100 µM.
Consider `CN(CCS(=O)(=O)O)C(=O)[C@@H]1Cc2ccc(cc2)OCC(=O)N[C@@H](Cc2cccs2)C(=O)N[C@H](Cc2ccc(-c3ccccc3)cc2)C(=O)N[C@@H](CCc2ccccc2)C(=O)N1` [Compound 605], for which the IC50 is less than 10 µM.
